Assay results taken from patent publication US20230114241A1, “METHODS OF TREATING EPILEPSY USING THE SAME” (Trevena, Inc., priority 2019, published 2023).

Legend:
[1] = molecular target: T1, human sphingosine-1-phosphate receptor 1 (S1P1) (Homo sapiens, UniProt P21453); assay: Inhibition of cAMP production (HTRF cAMP HiRange), S1P1 CHO-K1 cells; format: cell-based; settings: inhibition of cAMP production; for Emax: CHO-K1, efficacy normalized to maximum efficacy of fingolimod, read-out: hS1P1 CAMP SPAN; for EC50: potency, read-out: hS1P1 CAMP pEC50 (converted)
Procedure, shortened: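 Intracellular cAMP changes read by TR-FRET (HTRF HiRange, 1 h room temperature) after 30 min compound exposure at 37 °C. Cells: overnight-plated CHO-K1 stably expressing tagged human S1P1 with EA-β-arrestin2. Responses normalized to fingolimod.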
Target sequence in this assay (P21453 whole entry): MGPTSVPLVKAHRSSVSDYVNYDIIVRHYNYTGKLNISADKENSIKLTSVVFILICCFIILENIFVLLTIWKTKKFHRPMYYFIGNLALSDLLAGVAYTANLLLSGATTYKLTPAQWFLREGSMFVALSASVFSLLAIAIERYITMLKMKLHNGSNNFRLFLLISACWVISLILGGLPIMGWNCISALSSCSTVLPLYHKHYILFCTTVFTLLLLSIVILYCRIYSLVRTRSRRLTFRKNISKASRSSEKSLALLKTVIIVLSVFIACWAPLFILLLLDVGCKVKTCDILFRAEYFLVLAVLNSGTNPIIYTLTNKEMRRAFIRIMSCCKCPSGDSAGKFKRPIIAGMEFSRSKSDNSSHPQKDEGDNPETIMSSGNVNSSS

[2] = molecular target: T1, human sphingosine-1-phosphate receptor 1 (S1P1); assay: β-Arrestin2 recruitment assay (PathHunter), S1P1 CHO-K1 cells; format: cell-based; settings: for Emax: CHO-K1, β-arrestin2 recruitment, efficacy normalized to maximum efficacy of fingolimod, read-out: hS1P1 B-arrestin2 SPAN; for EC50: β-arrestin2 recruitment, potency, read-out: hS1P1 B-arrestin2 pEC50 (converted)
Procedure, shortened: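 Agonist-driven β-arrestin2 recruitment measured by β-galactosidase complementation after 60 min compound exposure at 37 °C and 1 h detection at room temperature. Cells: stable CHO-K1 line expressing tagged human S1P1 with EA-β-arrestin2, plated the night before. Data expressed relative to fingolimod.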
Target sequence in this assay (P21453 whole entry): as above
Target sequence in this assay (P32121 whole entry partner): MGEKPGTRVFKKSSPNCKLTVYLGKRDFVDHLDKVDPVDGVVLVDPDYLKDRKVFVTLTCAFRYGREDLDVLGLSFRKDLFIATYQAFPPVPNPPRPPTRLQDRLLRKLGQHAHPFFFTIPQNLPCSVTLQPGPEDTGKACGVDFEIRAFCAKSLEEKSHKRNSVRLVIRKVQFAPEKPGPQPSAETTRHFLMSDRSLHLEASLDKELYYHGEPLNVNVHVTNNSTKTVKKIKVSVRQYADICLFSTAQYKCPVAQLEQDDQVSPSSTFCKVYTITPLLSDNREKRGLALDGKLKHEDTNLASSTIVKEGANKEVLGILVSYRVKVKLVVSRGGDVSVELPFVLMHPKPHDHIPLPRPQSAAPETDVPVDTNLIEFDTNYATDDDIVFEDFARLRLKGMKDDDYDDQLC

[3] = molecular target: human sphingosine-1-phosphate receptor 2 (S1P2) (Homo sapiens, UniProt O95136); assay: Selectivity: inositol monophosphate production (IP-one), S1P2 CHO-K1 cells; format: cell-based; settings: for Emax: CHO-K1, efficacy normalized to maximal efficacy of CYM5520, read-out: hS1P2 IP-one SPAN; for EC50: inositol monophosphate accumulation, read-out: hS1P2 IP-one pEC50 (converted)
Procedure: (§1) Cell Culturing and Assay Plating Cell lines were cultured in AssayComplete™ Media 6 (DiscoverX Corporation, Cat #: 920018GF2) at 37° C. and 5% CO2 in a humidified CO2 and temperature-controlled incubator. To begin assay plating, cells were washed with Dulbecco's phosphate buffered saline (CellGro, Cat #: 21-031-CV) and lifted from the culturing flask by incubation (37° C., 5 min) with CellStripper (Cellgro, Cat #: 25-056-CI). […] Plated cells were incubated overnight at 37° C. and 5% CO2 in a humidified CO2 and temperature-controlled incubator. Detecting Inhibition of cAMP Production
S1P2 Agonist-promoted G-protein responses were determined by measuring changes in intracellular inositol monophosphate using the IP-one TB kit (CisBio, Cat #: 62IPAPEJ) based on time-resolved fluorescence resonance energy transfer (TR-FRET) technology. AssayComplete™ Cell Plating 2 Reagent was removed and replaced with 1× IP-one stimulation buffer (as per manufacturer's instructions) along with test or control compounds at the desired concentrations.
Following a 60-minute incubation at 37° C. and 5% CO2 in a humidified CO2 and temperature-controlled incubator, the components of the IP-one TB kit were added as per the manufacturer's instructions. After an hour incubation at room temperature, plates were analyzed by a BMG PheraStar microplate reader.
(§2) These values are normalized to fimgolimod, a known agonist of the sphingosine-1-phosphate 3 and 5 receptor or CYM5520, a known agonist of the sphingosine-1-phosphate 2 receptor. The tables also include potency values (pEC50) for modulating discrete receptor-mediated activities (inhibition of cAMP production or inositol monophosphate accumulation).

[4] = molecular target: human sphingosine-1-phosphate receptor 3 (S1P3) (Homo sapiens, UniProt Q99500); assay: Selectivity: inhibition of cAMP production (HTRF), S1P3 CHO-K1 cells; format: cell-based; settings: for Emax: CHO-K1, efficacy normalized to maximal efficacy of fimgolimod, read-out: hS1P3 cAMP SPAN; for EC50: inhibition of cAMP production, read-out: hS1P3 cAMP pEC50 (converted)
Procedure: as §1
(§3) S1P3 and S1P5 Agonist-promoted G-protein responses were determined by measuring changes in intracellular cAMP using the HTRF® cAMP HiRange kit (CisBio, Cat #: 62AM6PEJ) based on time-resolved fluorescence resonance energy transfer (TR-FRET) technology. […] Following a 30-minute room temperature incubation the components of the cAMP HiRange kit were added as per the manufacturer's instructions. After an hour incubation at room temperature, plates were analyzed by a BMG PheraStar microplate reader.
as §2

[5] = molecular target: sphingosine-1-phosphate receptor 5 (S1P5) (Homo sapiens, UniProt Q9H228); assay: Selectivity: inhibition of cAMP production (HTRF), S1P5 CHO-K1 cells; format: cell-based; settings: for Emax: CHO-K1, efficacy normalized to maximal efficacy of fimgolimod, read-out: hS1P5 cAMP SPAN; for EC50: inhibition of cAMP production, read-out: hS1P5 cAMP pEC50 (converted)
Procedure: as §1, §3, §2

[6] = system: peripheral blood lymphocytes; assay: Lymphopenia: peripheral blood lymphocyte counts, acute and chronic s.c. dosing; format: in vivo; settings: 6 mg/kg sc, 7 days, c57bl/6 mice
Procedure, shortened: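 C57bl/6 mice given test compound s.c.: acute, single 3 mg/kg (n=5/group), sampled at set times; chronic, 3-7 days at ≥5-fold the efficacious dose (n=6-8/group), sampled 45 min to 6 h after last dose. EDTA whole-blood lymphocyte counts (10^3 cells/μl) by Advia 120, compared with vehicle.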

hERG channel = hERG channel (Homo sapiens, UniProt Q12809); assay: cell-based
hERG channel, sequence (Q12809 whole entry): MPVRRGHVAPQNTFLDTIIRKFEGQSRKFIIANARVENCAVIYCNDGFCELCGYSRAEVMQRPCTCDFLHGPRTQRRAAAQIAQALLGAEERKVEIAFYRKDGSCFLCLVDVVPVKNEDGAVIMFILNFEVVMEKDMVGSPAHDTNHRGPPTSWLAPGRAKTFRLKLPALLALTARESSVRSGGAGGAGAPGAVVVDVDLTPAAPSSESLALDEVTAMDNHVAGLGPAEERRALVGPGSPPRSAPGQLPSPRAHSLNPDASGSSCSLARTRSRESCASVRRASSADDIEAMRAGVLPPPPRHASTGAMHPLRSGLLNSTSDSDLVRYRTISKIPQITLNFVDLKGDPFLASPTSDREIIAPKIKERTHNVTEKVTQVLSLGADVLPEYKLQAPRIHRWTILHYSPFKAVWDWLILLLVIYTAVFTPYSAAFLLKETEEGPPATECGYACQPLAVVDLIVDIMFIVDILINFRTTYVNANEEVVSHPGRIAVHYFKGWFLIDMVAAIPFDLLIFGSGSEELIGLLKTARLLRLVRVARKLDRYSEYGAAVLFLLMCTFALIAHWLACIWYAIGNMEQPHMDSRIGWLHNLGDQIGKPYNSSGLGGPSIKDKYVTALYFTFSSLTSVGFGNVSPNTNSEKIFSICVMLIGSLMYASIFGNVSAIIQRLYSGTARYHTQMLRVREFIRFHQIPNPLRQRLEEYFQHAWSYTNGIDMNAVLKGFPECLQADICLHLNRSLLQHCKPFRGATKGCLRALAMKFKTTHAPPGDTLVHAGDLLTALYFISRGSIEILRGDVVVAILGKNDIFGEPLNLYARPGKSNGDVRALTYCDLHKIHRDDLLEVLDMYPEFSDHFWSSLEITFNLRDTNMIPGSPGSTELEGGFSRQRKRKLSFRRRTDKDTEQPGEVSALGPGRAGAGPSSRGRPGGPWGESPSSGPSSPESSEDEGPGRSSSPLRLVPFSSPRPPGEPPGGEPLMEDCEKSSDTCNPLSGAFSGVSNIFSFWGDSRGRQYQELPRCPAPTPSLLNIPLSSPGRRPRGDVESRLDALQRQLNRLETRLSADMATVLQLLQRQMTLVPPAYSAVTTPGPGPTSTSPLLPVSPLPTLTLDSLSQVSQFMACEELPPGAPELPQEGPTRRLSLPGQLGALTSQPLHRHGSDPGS

human sphingosine-1-phosphate receptor 2 (S1P2), sequence (O95136 whole entry): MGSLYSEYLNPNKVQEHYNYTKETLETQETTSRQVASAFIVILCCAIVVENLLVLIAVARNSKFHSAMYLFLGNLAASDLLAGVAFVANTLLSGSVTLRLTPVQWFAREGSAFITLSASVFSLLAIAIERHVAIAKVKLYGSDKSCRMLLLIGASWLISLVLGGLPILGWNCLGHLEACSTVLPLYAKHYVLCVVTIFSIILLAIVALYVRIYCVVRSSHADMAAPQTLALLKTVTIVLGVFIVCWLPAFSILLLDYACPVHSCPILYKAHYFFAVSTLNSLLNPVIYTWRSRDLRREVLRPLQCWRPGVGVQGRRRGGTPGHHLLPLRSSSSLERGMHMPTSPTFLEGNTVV
sphingosine-1-phosphate receptor 5 (S1P5), sequence (Q9H228 whole entry): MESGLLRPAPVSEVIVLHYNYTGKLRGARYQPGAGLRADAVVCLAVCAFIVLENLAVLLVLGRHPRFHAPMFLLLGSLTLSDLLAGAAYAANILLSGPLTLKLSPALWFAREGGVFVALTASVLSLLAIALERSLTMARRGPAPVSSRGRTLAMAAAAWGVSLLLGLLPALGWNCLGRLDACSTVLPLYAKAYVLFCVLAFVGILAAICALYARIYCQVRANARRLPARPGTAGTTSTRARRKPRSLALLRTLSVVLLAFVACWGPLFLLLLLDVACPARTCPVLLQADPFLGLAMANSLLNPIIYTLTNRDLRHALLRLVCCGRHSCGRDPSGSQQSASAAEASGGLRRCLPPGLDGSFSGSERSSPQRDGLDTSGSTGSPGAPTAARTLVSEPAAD
human sphingosine-1-phosphate receptor 3 (S1P3), sequence (Q99500 whole entry): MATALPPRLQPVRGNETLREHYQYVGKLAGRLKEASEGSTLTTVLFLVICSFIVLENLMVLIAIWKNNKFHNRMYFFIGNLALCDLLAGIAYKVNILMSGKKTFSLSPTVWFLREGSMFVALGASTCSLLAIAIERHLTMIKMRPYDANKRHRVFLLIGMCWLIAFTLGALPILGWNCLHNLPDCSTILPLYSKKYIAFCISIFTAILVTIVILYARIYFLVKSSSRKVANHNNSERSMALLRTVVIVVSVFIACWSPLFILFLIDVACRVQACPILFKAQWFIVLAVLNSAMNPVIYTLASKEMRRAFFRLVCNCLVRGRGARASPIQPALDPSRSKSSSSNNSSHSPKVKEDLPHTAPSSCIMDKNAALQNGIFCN

Row | SMILES | Emax [1] [%] | EC50 [1] [nM] | Emax [2] [%] | EC50 [2] [µM] | Emax [3] [%] | EC50 [3] [µM] | Emax [4] [%] | EC50 [4] [µM] | Emax [5] [%] | EC50 [5] [µM] | Lymphopenia effect (peripheral blood lymphocytes) [6] | IC50 (hERG channel) [µM]
1 | CC(C)n1nnc2cc(-c3nc(-c4cccc5c4OCCC5)no3)ccc21 [Compound 304, 3-chroman-8-yl-5-(1-isopropylbenzotriazol-5-yl)-1,2,4-oxadiazole] | < 75 | < 316 | > 75 | < 10 | < 50 | > 10 | < 50 | < 10 | < 50 | > 10 | no change: 6 mg/kg, 7 days | > 10
2 | CC(C)Nc1ccc(-c2nc(-c3ccc4nonc4c3)no2)cc1C#N [Compound 730, 5-[3-(2,1,3-benzoxa-diazol-5-yl)-1,2,4-oxadiazol-5-yl]-2-[(propan-2-yl)amino]benzonitrile] | – | – | – | – | – | – | – | – | – | – | no change: 6 mg/kg, 7 days | > 10
3 | COc1ccc(-c2noc(-c3ccc4c(c3)nnn4CC(C)(C)O)n2)c(C)c1 [Compound 26, 1-{5-[3-(4-methoxy-2-methylphenyl)-1,2,4-oxadiazol-5-yl]-1H-1,2,3-benzo-triazol-1-yl}-2-methylpropan-2-ol] | > 75 | < 316 | > 75 | < 10 | < 50 | > 10 | < 50 | > 10 | < 50 | > 10 | – | > 10
